*1 amine or outer side, *2 acyl side, *3 side chain or, on linkers, in order; H or OH if unused. Where a SMILES comes first, the peptide text is derived from it. Bridges are numbered along the chain shown (N, C = ends). [ ]: non-standard residue; d: D form. The star is where a group is joined. hPhe(3,5-F2-4-CF3) = N[C@@H](CCc1cc(F)c(C(F)(F)F)c(F)c1)C(=O)O; hPhe(3-Cl-4-CF3) = N[C@@H](CCc1ccc(C(F)(F)F)c(Cl)c1)C(=O)O; NPrPhe(4-CF3) = CCCN[C@@H](Cc1ccc(C(F)(F)F)cc1)C(=O)O; NEtAsp = CCN([C@@H](CC(=O)[*:3])C(=O)[*:2])[*:1]; Abu(4,4,4-F3) = N[C@@H](CC(F)(F)F)C(=O)O; NMeGly(cPent) = CN[C@H](C(=O)O)C1CCCC1; NMeD = CN[C@@H](CC(=O)O)C(=O)O; NMeL = CN[C@@H](CC(C)C)C(=O)O; Morpholide = C1CN(*)CCO1; NMeA = CN[C@@H](C)C(=O)O; Ac5c = NC1(C(=O)O)CCCC1; Aze = O=C(O)[C@@H]1CCN1; Ac4c = NC1(C(=O)O)CCC1; Sar = CNCC(=O)O
Key:
[1] = molecular target: GDP-bound NRAS wild-type protein (Homo sapiens, UniProt P01111); test: Binding to NRAS by surface plasmon resonance (SPR), KD and KD ratio to KRAS
In short: (§1)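 Recombinant RAS proteins bearing a biotinylated Avi tag and loaded with GDP served as the captured ligand, recaptured fresh every cycle. Binding responses were referenced to an uncoated surface and a buffer-only blank cycle. Dissociation constants were obtained by 1:1 model fitting at 30°C.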

HRAS wild-type protein = HRAS wild-type protein (Homo sapiens, UniProt P01112); test: Binding to HRAS by surface plasmon resonance (SPR), KD and KD ratio to KRAS
In short: as §1

[2] = test system: human lung cancer strain NCI-H441; assay type: cell-based
In short: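 Signal came from […] measured per well once the reagent was added. Beforehand, cells were cultured at 37°C and 5% carbon dioxide on a compound series serially diluted in dimethyl sulfoxide.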

[3] = ratio of KD for GDP-bound NRAS wild-type protein to KD for KRAS
[4] = ratio of KD for HRAS wild-type protein to KD for KRAS
[5] = ratio of the KD value with respect to GDP-bound NRAS wild-type protein to the KD value with respect to KRAS
[6] = ratio of the KD value with respect to HRAS wild-type protein to the KD value with respect to KRAS

HRAS wild-type protein, sequence (P01112 whole entry): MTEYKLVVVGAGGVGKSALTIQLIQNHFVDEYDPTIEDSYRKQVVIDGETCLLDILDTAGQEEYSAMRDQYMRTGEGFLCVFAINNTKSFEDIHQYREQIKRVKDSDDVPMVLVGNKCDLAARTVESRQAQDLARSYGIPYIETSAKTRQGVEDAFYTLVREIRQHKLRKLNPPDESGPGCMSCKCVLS
GDP-bound NRAS wild-type protein, sequence (P01111 whole entry): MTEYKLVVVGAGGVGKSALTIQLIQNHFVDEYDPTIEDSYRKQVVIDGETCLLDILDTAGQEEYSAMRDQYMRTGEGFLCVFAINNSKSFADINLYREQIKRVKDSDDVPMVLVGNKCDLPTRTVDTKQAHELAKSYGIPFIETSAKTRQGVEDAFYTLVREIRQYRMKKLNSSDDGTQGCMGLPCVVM

IC50 [2] [nM] | Compound | NRAS /KRAS [1, 3] | HRAS /KRAS (HRAS wild-type protein; [4]) | NRAS /KRAS [1, 5] | HRAS /KRAS (HRAS wild-type protein; [6])
7.1 | CCCN1C(=O)CN(C)C(=O)CN(C)C(=O)[C@H]([C@@H](C)CC)NC(=O)[C@H](CC(C)C)N(C)C(=O)C[C@@H](C(=O)N(C)C)N(C)C(=O)[C@H](C2CCCC2)N(C)C(=O)C2(CCCC2)NC(=O)[C@@H]2CCCN2C(=O)[C@H](CCc2cc(F)c(C(F)(F)F)c(F)c2)NC(=O)CN(C)C(=O)[C@@H]1Cc1ccc(C(F)(F)F)cc1 [PP0788] ([NMeL]I[Sar][Sar][NPrPhe(4-CF3)][Sar][hPhe(3,5-F2-4-CF3)]P[Ac5c][NMeGly(cPent)][NMeD]-NMe2; lactam N-11) | B (a compound having 3 or more and less than 10 is denoted as B) | C (A compound having a KD ratio of 0.1 or more and less than 3 is denoted as C) | – | –
610 | CC[C@H](C)[C@@H]1NC(=O)[C@H](CC(C)C)N(C)C(=O)C[C@@H](C(=O)N2CCOCC2)N(C)C(=O)[C@H](C2CCCC2)N(C)C(=O)C2(CCC2)NC(=O)[C@@H]2[C@H](OC)CCN2C(=O)[C@H](CCc2cc(F)c(C(F)(F)F)c(F)c2)NC(=O)CN(C)C(=O)[C@H](Cc2ccc(C(F)(F)F)cc2)N2CCCC[C@@H](C2=O)N(C)C(=O)CN(C)C1=O [PP1078] | B (a compound having 3 or more and less than 10 is denoted as B) | B (a compound having 3 or more and less than 10 is denoted as B) | – | –
8.6 | CCCN1C(=O)[C@@H]2CCN2C(=O)[C@H](C)N(C)C(=O)[C@H]([C@@H](C)CC)NC(=O)[C@H](CC(C)C)N(C)C(=O)C[C@@H](C(=O)N(C)C)N(CC)C(=O)[C@H](C2CCCC2)N(C)C(=O)C2(CCC2)NC(=O)[C@@H]2CCCN2C(=O)[C@H](CCc2ccc(C(F)(F)F)c(Cl)c2)NC(=O)CN(C)C(=O)[C@@H]1Cc1ccc(C(F)(F)F)cc1 [PP1957] ([NMeL]I[NMeA][Aze][NPrPhe(4-CF3)][Sar][hPhe(3-Cl-4-CF3)]P[Ac4c][NMeGly(cPent)][NEtAsp]-NMe2; lactam N-11) | – | – | C (A compound having a KD ratio of 0.1 or more and less than 3 is denoted as C) | B (a compound having 3 or more and less than 10 is denoted as B)
12.5 | CCCN1C(=O)[C@@H]2CCN2C(=O)CN(C)C(=O)[C@H]([C@@H](C)CC)NC(=O)[C@H](CC(C)C)N(C)C(=O)C[C@@H](C(=O)N2CCOCC2)N(C)C(=O)[C@H](C2CCCC2)N(C)C(=O)C2(CCCC2)NC(=O)[C@@H]2CCCN2C(=O)[C@H](CCc2cc(F)c(C(F)(F)F)c(F)c2)NC(=O)CN(C)C(=O)[C@@H]1Cc1ccc(C(F)(F)F)cc1 [PP0789] ([NMeL]I[Sar][Aze][NPrPhe(4-CF3)][Sar][hPhe(3,5-F2-4-CF3)]P[Ac5c][NMeGly(cPent)][NMeD]-Morpholide; lactam N-11) | C (A compound having a KD ratio of 0.1 or more and less than 3 is denoted as C) | B (a compound having 3 or more and less than 10 is denoted as B) | – | –
25.5 | CCCN1C(=O)CN(C)C(=O)CN(C)C(=O)[C@H](CC(F)(F)F)NC(=O)[C@H](CC(C)C)N(C)C(=O)C[C@@H](C(=O)N2CCOCC2)N(C)C(=O)[C@H](C2CCCC2)N(C)C(=O)C2(CCCC2)NC(=O)[C@@H]2CCCN2C(=O)[C@H](CCc2ccc(C(F)(F)F)c(Cl)c2)NC(=O)CN(C)C(=O)[C@@H]1Cc1ccc(C(F)(F)F)cc1 [PP0249] ([NMeL][Abu(4,4,4-F3)][Sar][Sar][NPrPhe(4-CF3)][Sar][hPhe(3-Cl-4-CF3)]P[Ac5c][NMeGly(cPent)][NMeD]-Morpholide; lactam N-11) | B (a compound having 3 or more and less than 10 is denoted as B) | C (A compound having a KD ratio of 0.1 or more and less than 3 is denoted as C) | – | –

Further lines, the molecule ahead of its results:

Compound | IC50 [2] [nM] | NRAS /KRAS [1, 3] | HRAS /KRAS (HRAS wild-type protein; [4]) | NRAS /KRAS [1, 5] | HRAS /KRAS (HRAS wild-type protein; [6])
CCO[C@@H]1C[C@H]2C(=O)NC3(CCC3)C(=O)N(C)[C@@H](C3CCCC3)C(=O)N(C)[C@H](C(=O)N3CCOCC3)CC(=O)N(C)[C@@H](C)C(=O)N[C@@H]([C@@H](C)CC)C(=O)N(C)CC(=O)N(C)[C@H]3CCCCN(C3=O)[C@@H](Cc3ccc(C(F)(F)F)cc3)C(=O)N(C)CC(=O)N[C@@H](CCc3cc(F)c(C(F)(F)F)c(F)c3)C(=O)N2C1 [PP0585] | 6.2 | – | – | B (a compound having 3 or more and less than 10 is denoted as B) | B (a compound having 3 or more and less than 10 is denoted as B)
CC[C@H](C)[C@@H]1NC(=O)[C@H](CC(C)C)N(C)C(=O)C[C@@H](C(=O)N2CCOCC2)N(C)C(=O)[C@H](C2CCCC2)N(C)C(=O)C2(CCC2)NC(=O)[C@@H]2[C@@H](OCC3CCCC3)CCN2C(=O)[C@H](CCc2cc(F)c(C(F)(F)F)c(F)c2)NC(=O)CN(C)C(=O)[C@H](Cc2ccc(C(F)(F)F)cc2)N2CCCC[C@@H](C2=O)N(C)C(=O)CN(C)C1=O [PP1073] | 83.7 | B (a compound having 3 or more and less than 10 is denoted as B) | B (a compound having 3 or more and less than 10 is denoted as B) | – | –
CCO[C@@H]1C[C@H]2C(=O)NC3(CC(C)(C)C3)C(=O)N(C)[C@@H](CC3CCC3)C(=O)N(C)[C@H](C(=O)N(C)C)CC(=O)N(C)[C@@H](COC)C(=O)N[C@@H]([C@@H](C)CC)C(=O)N(C3CC3)CC(=O)N(C)[C@H]3C/C=C\CCN(C3=O)[C@@H](Cc3ccc(C(F)(F)F)cc3)C(=O)N(C)CC(=O)N[C@@H](CCc3ccc(Cl)c(Cl)c3)C(=O)N2C1 [PP2821] | 90.4 | A (a compound having 10 or more and less than 20 is denoted as A) | A (a compound having 10 or more and less than 20 is denoted as A) | – | –
CCO[C@@H]1C[C@H]2C(=O)NC3(CCC3)C(=O)N(C)[C@@H](C3CCCC3)C(=O)N(C)[C@H](C(=O)N(C)C)CC(=O)N(C)[C@@H](COC)C(=O)N[C@@H]([C@@H](C)CC)C(=O)N3CC[C@H]3C(=O)N(C)[C@H]3CCCCCN(C3=O)[C@@H](Cc3ccc(C(F)(F)F)cc3)C(=O)N(C)CC(=O)N[C@@H](CCc3cc(F)c(C(F)(F)F)c(F)c3)C(=O)N2C1 [PP0864] | 185 | B (a compound having 3 or more and less than 10 is denoted as B) | B (a compound having 3 or more and less than 10 is denoted as B) | – | –
CCO[C@@H]1C[C@H]2C(=O)NC3(CC(C)(C)C3)C(=O)N(C)[C@@H](C(CC)CC)C(=O)N(C)[C@H](C(=O)N(C)C)CC(=O)N(C)[C@H]3CCCC/C=C/c4ccc(cc4)C[C@@H](C(=O)N(C)CC(=O)N[C@@H](CCc4cc(F)c(C(F)(F)F)c(F)c4)C(=O)N2C1)N1CC/C=C\C[C@@H](C1=O)N(C)C(=O)CN(C)C(=O)[C@H]([C@@H](C)CC)NC3=O [PP3044] | 7.1 | AA (a compound having 20 or more is denoted as AA) | A (a compound having 10 or more and less than 20 is denoted as A) | – | –
CCCO[C@@H]1C[C@H]2C(=O)NC3(CC(C)(C)C3)C(=O)N(C)[C@@H](C3CCCC3)C(=O)N(C)[C@H](C(=O)N(C)C)CC(=O)N(C)[C@H]3CCCCc4ccc(cc4)C[C@@H](C(=O)N(C)CC(=O)N[C@@H](CCc4ccc(C(F)(F)F)c(OC)c4)C(=O)N2C1)N1CC/C=C\C[C@@H](C1=O)N(C)C(=O)CN(C1CC1)C(=O)[C@H]([C@@H](C)CC)NC3=O [PP3082] | 1.7 | B (a compound having 3 or more and less than 10 is denoted as B) | B (a compound having 3 or more and less than 10 is denoted as B) | – | –
